Test results published in patent publication US4042702A, “Halogen pyrazole derivatives, a method for producing these halogen pyrazole derivatives, medicaments containing and methods of using them” (Byk Gulden Lomberg Chemische Fabrik GmbH, priority 1973, dated 1977).

Experiments:
[1] = tested on: carrageenin edema of the rear paw of the rat; assay: Retardation of the Carrageenin Edema of the rear paw of the rat; format: in vivo; conditions: for ED25: po, rat, single administration, mean retardation of 25 % 3 and 5 hours after administration; for relative effect (Retardation of the Carrageenin Edema): relative to phenyl butazone (I) = 1.0
Experimental: (§1) The antiinflammatory action of the standard preparation and the compounds of this invention, respectively, was determined
on the retarding inflammation at the carrageenin edema of the rear paw of the rat [Winter et al. Proc. Soc. exp. Biol. Med. 111 (1962) 544], wherein in table 2 those doses are shown which cause a mean retardation of 25 % 3 and 5 hours after single administration of the substance to be tested;

[2] = tested on: ultraviolet erythema of the skin on the back of the guinea pig; assay: Retardation of the UV-Erythema (skin on the back of the guinea pig); format: in vivo; conditions: for ED25: Cavia porcellus, light or radiation study, po, guinea pig, retardation of 25 % 5 hours after irradiation; for relative effect (Retardation of the UV-Erythema): relative to phenyl butazone (I) = 1,0
Experimental: as §1
on the retardation at the ultraviolet erythema of the skin on the back of the guinea pig [Winder et al. Arch. int. Pharmacodyn. 116 (1958) 261], wherein in table 1 those doses are shown which cause a retardation of 25 % 5 hours after irradiation;

[3] = tested on: granulation tissue formation (cotton granuloma) in rats; assay: Retardation of the granulation tissue formation (cotton granuloma, chronic inflammation model); format: in vivo, rat; conditions: for ED20: po, 168 h, 7 × p.o., rats, 20% inhibition, cotton granuloma; for relative effect (Retardation of the granulation tissue formation): relative to phenyl butazone (I) = 1.0
Experimental: as §1
on a chronic inflammation model (cotton granuloma) wherein the influence of the compounds on the granulation tissue formation after subcutaneous implantation of cotton plugs in rats was studied after daily administration on 7 following days in taking pattern from the method described by Winter et al. [J. Pharmacol. exp. Therap.

in vivo [4] = conditions: rat, po
in vivo [5] = conditions: mouse, po
rats = conditions: 7 × p.o., 5 % of animals died within 10 days

SMILES	ED25 [1]	relative effect (Retardation of the Carrageenin Edema) [1]	ED25 [2]	relative effect (Retardation of the UV-Erythema) [2]	ED20 [3]	relative effect (Retardation of the granulation tissue formation) [3]	selectivity ratio (in vivo [4])	LD50 at 240 h (in vivo [5])	selectivity ratio (in vivo [5])	LD5 (rats)
CCCCC1C(=O)N(c2ccccc2)N(c2ccccc2)C1=O [I, phenyl butazone, reference compound]	10 mg/kg	1.0	1 mg/kg	1,0	100 mg/kg/day	1.0	–	–	–	–
O=C(O)Cc1c(-c2ccc(Cl)cc2)nn(-c2ccccc2)c1Cl [II, 5-chloro-3-p-chlorophenyl-1-phenyl-pyrazole-4-acetic acid]	1.5 mg/kg	6.7	0.15 mg/kg	6.7	3 mg/kg/day	33.3	6	530 mg/kg	353	18 mg/kg/die
COc1ccc(-c2nn(-c3ccccc3)c(Cl)c2CC(=O)O)cc1 [IV, 5-chloro-3-p-methoxyphenyl-1-phenyl-pyrazole-4-acetic acid]	12 mg/kg	0.8	–	–	–	–	–	1100 mg/kg	91.7	–
O=C(O)Cc1c(-c2ccccc2)nn(-c2ccccc2)c1Cl [III, 5-chloro-1,3-diphenyl-pyrazole-4-acetic acid]	1 mg/kg	10.0	0.25 mg/kg	4.0	8 mg/kg/day	12.5	12.5	1200 mg/kg	1200	100 mg/kg/die
